Data taken from US6756367B2, “Benzo-oxadiazoles, -thiadiazoles and -1,4-diazines, pharmaceutical compositions containing them and a process for preparing them” (Novartis AG, priority 1998, dated 2004).
Structures can show the parent of a compound that is named as a salt.

target: T1, human recombinant CRF1 (Homo sapiens, UniProt P34998); experiment: CRF-stimulated cyclic AMP accumulation in CHO cells expressing human recombinant CRF1 (antagonism, KB from curve shift); assay type: cell-based; conditions: cAMP, shift of CRF curve with antagonist 10 μM
T1 construct: expressed in transfected cells
T1 sequence (P34998 24-415): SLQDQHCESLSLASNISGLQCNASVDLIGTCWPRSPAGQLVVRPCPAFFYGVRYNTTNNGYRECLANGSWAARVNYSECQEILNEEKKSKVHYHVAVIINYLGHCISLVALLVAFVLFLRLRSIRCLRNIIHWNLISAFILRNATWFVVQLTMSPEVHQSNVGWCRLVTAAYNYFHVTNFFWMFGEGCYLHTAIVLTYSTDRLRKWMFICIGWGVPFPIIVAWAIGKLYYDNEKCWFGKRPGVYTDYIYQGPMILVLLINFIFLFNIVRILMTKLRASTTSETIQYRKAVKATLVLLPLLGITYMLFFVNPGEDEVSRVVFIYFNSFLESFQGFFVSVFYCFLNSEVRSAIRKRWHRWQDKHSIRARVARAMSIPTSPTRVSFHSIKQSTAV
Method: In particular the agents of the invention bind to CRF receptors.
Chinese hamster ovary (CHO) cells expressing human recombinant CRF1 (Chen et al., Proc Natl Acad Sci USA 90, 8967-8971, 1993) are propagated in Dulbecco's modified Eagle medium supplemented with 10% foetal calf serum, non-essential aminoacids, 100 U/ml penicillin, 100 mg/l streptomycin and 1 g/l geneticin (G418). For cyclic AMP determinations, cells are grown to confluence in 24-multiwell plates. Stimulation of cyclic AMP accumulation by CRF (human/rat form) is measured in intact cells, using the [^3H]adenine labelling technique, as described previously (Schoeffter et al., Neuropharmacology 36, 429-437, 1997). Concentration-response curves for CRF are constructed in the presence of putative antagonists (10 μM) or vehicle (dimethyl sulfoxide 1% vol). KB values are calculated from the rightward shifts of the control curve, according to the formula: KB=[antagonist, M]/concentration-ratio-1), where the concentration-ratio designates the ratio of CRF EC50 value in the presence/CRF EC50 value in the absence, of antagonist [Furchgott, In: catecholamines (edited by Blaschko H and Muscholl E) pp. 283-335. Springer, Berlin, 1972].

| SMILES | Kb |
| --- | --- |
| CCCN(CCC)c1nc(C)nc(Nc2c(C)cc(C)c3nsnc23)c1C [Example 1, 5,7-dimethyl-4-[2,5-dimethyl-6-(di-n-propyl)-amino-pyrimidin-4-yl]-amino-2,1,3-benzothiadiazole] | 36 nM |

tested on: mouse; experiment: mouse elevated plus-maze (anxiolytic activity); assay type: in vivo; conditions: 0.1 to 10 mg/kg p.o., in contrast to the standard chlordiazepoxide
Excerpt: For example the anxiolytic activity of the agents of the invention could be confirmed in the mouse elevated plus-maze [see for example Rodgers R. J., Behavioural Pharmacology 8: 477-496 (1997) where the relevance of the elevated plus-maze is discussed on p. 486; for the method, see Rodgers R. J. et al. Ethology and Psychopharmacology (Eds S J Cooper and C A Hendrie), pp 9-44 (1994), J. Wiley, Chichester]. In this test, the agents of the invention show anxiolytic-like effects on administration of 0.1 to 30 mg/kg p.o.

| SMILES | parameters related to motor stimulation in the elevated plus-maze |
| --- | --- |
| CCCN(CCC)c1nc(C)nc(Nc2c(C)cc(C)c3nsnc23)c1C [Example 1, 5,7-dimethyl-4-[2,5-dimethyl-6-(di-n-propyl)-amino-pyrimidin-4-yl]-amino-2,1,3-benzothiadiazole] | not affected |

same assay, conditions: doses of 0.1 to 10 mg/kg p.o.

| SMILES | effect on anxiety-related behavioural parameters in the elevated plus-maze |
| --- | --- |
| CCCN(CCC)c1nc(C)nc(Nc2c(C)cc(C)c3nsnc23)c1C [Example 1, 5,7-dimethyl-4-[2,5-dimethyl-6-(di-n-propyl)-amino-pyrimidin-4-yl]-amino-2,1,3-benzothiadiazole] | significantly affect the anxiety-related behavioural parameters |

same assay, conditions: p.o., elevated plus-maze

| SMILES | dose of maximum effect on anxiety-related behavioural parameters |
| --- | --- |
| CCCN(CCC)c1nc(C)nc(Nc2c(C)cc(C)c3nsnc23)c1C [Example 1, 5,7-dimethyl-4-[2,5-dimethyl-6-(di-n-propyl)-amino-pyrimidin-4-yl]-amino-2,1,3-benzothiadiazole] | 3 mg/kg |

tested on: not given; experiment: not given; conditions: not given

| SMILES | melting point |
| --- | --- |
| CCC(C)Nc1nc(C)nc(Nc2c(C)cc(C)c3nsnc23)c1C (centres unmarked) | 88 °C |
| CCN(C)c1nc(C)nc(Nc2c(Cl)cc(Cl)c3nsnc23)c1C | 116 °C |
| CCCCN(C)c1nc(C)nc(Nc2c(Cl)cc(Cl)c3nsnc23)c1C | 105 °C |
| CCCN(CC)c1nc(C)nc(Nc2c(Cl)cc(Cl)c3nsnc23)c1C | 107 °C |
| CCCCN(CC)c1nc(C)nc(Nc2c(Cl)cc(Cl)c3nsnc23)c1C | 101 °C |
| CCCCN(CCCC)c1nc(C)nc(Nc2c(Cl)cc(Cl)c3nsnc23)c1C | 56 °C |
| C=CCN(CC=C)c1nc(C)nc(Nc2c(Cl)cc(Cl)c3nsnc23)c1C | 112 °C |
| Cc1nc(NCc2ccccc2)c(C)c(Nc2c(Cl)cc(Cl)c3nsnc23)n1 | 126 °C |
| Cc1nc(Nc2c(Cl)cc(Cl)c3nsnc23)c(C)c(N(C)Cc2ccccc2)n1 | 138 °C |
| CCCN(CCC)c1nc(C)nc(Nc2c(Cl)ccc3nsnc23)c1C | 77 to 80 °C |
| CCCN(CCC)c1nc(C)nc(Nc2c(Cl)cc(Cl)c3nccnc23)c1C | 126 to 128 °C |
| CCCN(CCC)c1nc(C)nc(Nc2c(Cl)cc(C)c3nccnc23)c1C | 107 to 109 °C |
| CCCN(CC)c1nc(C)nc(Nc2c(Cl)cc(Cl)c3nccnc23)c1C | 120 to 123 °C |
| CCCN(CC)c1nc(C)nc(Nc2c(C)cc(C)c3nccnc23)c1C | 109 to 110 °C |
| CCCCN(CC)c1nc(C)nc(Nc2c(Cl)cc(Cl)c3nccnc23)c1C | 117 to 119 °C |
| CCCCN(CC)c1nc(C)nc(Nc2c(C)cc(C)c3nccnc23)c1C | 106 to 107 °C |
| CCN(CC)c1nc(C)nc(Nc2c(Cl)cc(Cl)c3nsnc23)c1C (as salt: fumarate) | 189 to 193 °C |

Now from value to compound:

| melting point | SMILES |
| --- | --- |
| 113 to 115 °C | CCC(CC)Nc1nc(C)nc(Nc2c(C)cc(C)c3nsnc23)c1C |
| 171 to 173 °C | CCCN(CCC)c1nc(C)nc(Nc2c(C)cc(C)c3nsnc23)c1C#N |
| 118 to 121 °C | CCCN(CCC)c1nc(C)nc(Nc2c(Cl)cc(Cl)c3nsnc23)c1C |
| 102 to 104 °C | CCCN(CCC)c1nc(C)nc(Nc2c(C)cc(Cl)c3nsnc23)c1C |
| 112 to 114 °C | CCCN(CCC)c1nc(C)nc(Nc2c(Cl)cc(C)c3nsnc23)c1C |
| 95 to 98 °C | CCCN(CCC)c1nc(C)nc(Nc2c(C)ccc3nsnc23)c1C |
| 94 to 96 °C | CCCN(CCC)c1nc(C)nc(Nc2c(C)cc(C)c3nccnc23)c1C |
| 106 to 108 °C | CCCN(CCC)c1nc(C)nc(Nc2c(C)cc(C)c3nsnc23)c1Cl |
| 101 to 102 °C | CCCN(CC)c1nc(C)nc(Nc2c(C)cc(C)c3nsnc23)c1C |
| 83 to 84 °C | CCCCN(CC)c1nc(C)nc(Nc2c(C)cc(C)c3nsnc23)c1C |
| 177 to 179 °C | CCCN(CCC)c1cc(Nc2c(C)cc(C)c3nsnc23)nc(C)n1 (as salt: fumarate) |
